Reference: PMC7162861, “Synthesis, cytotoxicity, pharmacokinetic profile, binding with DNA and BSA of new imidazo[1,2-a]pyrazine-benzo[d]imidazol-5-yl hybrids” (Scientific Reports, 2020)

Assays:
A549/ATCC = assay: NCI cytotoxicity screen, Non-Small Cell Lung Cancer panel; format: cell-based; conditions: Homo sapiens; A549/ATCC; single dose 10 µM; negative = lethal; read-out: Percent growth inhibition
Experimental: (§1) Cytotoxicity was performed at National Cancer Institute (NCI), Bethesda, USA as per their protocols.

EXVX = assay: as above; format: cell-based; conditions: Homo sapiens; EXVX; single dose 10 µM; negative = lethal; read-out: Percent growth inhibition
Experimental: as §1

HOP-62 = assay: as above; format: cell-based; conditions: Homo sapiens, single dose 10 µM, negative = lethal, read-out: Percent growth inhibition
Experimental: as §1

HOP-92 = assay: as above; format: cell-based; conditions: Homo sapiens, single dose 10 µM, negative = lethal, read-out: Percent growth inhibition
Experimental: as §1

NCI-H460 = assay: as above; format: cell-based; conditions: Homo sapiens, single dose 10 µM, negative = lethal, read-out: Percent growth inhibition
Experimental: as §1

NCI-522 = assay: as above; format: cell-based, human; conditions: Homo sapiens; NCI-522; single dose 10 µM; negative = lethal; read-out: Percent growth inhibition
Experimental: as §1

NCI-H226 = assay: as above; format: cell-based, human; conditions: Homo sapiens, single dose 10 µM, negative = lethal, read-out: Percent growth inhibition
Experimental: as §1

NCI-H23 = assay: as above; format: cell-based, human; conditions: Homo sapiens, single dose 10 µM, negative = lethal, read-out: Percent growth inhibition
Experimental: as §1

NCI-H322M = assay: as above; format: cell-based, human; conditions: Homo sapiens, single dose 10 µM, negative = lethal, read-out: Percent growth inhibition
Experimental: as §1

COLO 205 = assay: NCI cytotoxicity screen, Colon Cancer panel; format: cell-based; conditions: Homo sapiens, single dose 10 µM, negative = lethal, read-out: Percent growth inhibition
Experimental: as §1

HCT-116 = assay: NCI cytotoxicity screen, Colon Cancer panel; format: cell-based; conditions: Homo sapiens, single dose 10 µM, negative = lethal, read-out: Percent growth inhibition
Experimental: as §1

HCT-15 = assay: NCI cytotoxicity screen, Colon Cancer panel; format: cell-based; conditions: Homo sapiens, single dose 10 µM, negative = lethal, read-out: Percent growth inhibition
Experimental: as §1

HT29 = assay: NCI cytotoxicity screen, Colon Cancer panel; format: cell-based; conditions: Homo sapiens, HT-29; HT29; single dose 10 µM; negative = lethal; read-out: Percent growth inhibition
Experimental: as §1

LOX IMVI = assay: NCI cytotoxicity screen, Melanoma panel; format: cell-based, human; conditions: Homo sapiens, single dose 10 µM, negative = lethal, read-out: Percent growth inhibition
Experimental: as §1

M14 = assay: NCI cytotoxicity screen, Melanoma panel; format: cell-based, human; conditions: Homo sapiens, single dose 10 µM, negative = lethal, read-out: Percent growth inhibition
Experimental: as §1

UACC-62 = assay: NCI cytotoxicity screen, Melanoma panel; format: cell-based, human; conditions: Homo sapiens, single dose 10 µM, negative = lethal, read-out: Percent growth inhibition
Experimental: as §1

MALME-3M = assay: NCI cytotoxicity screen, Melanoma panel; format: cell-based; conditions: Homo sapiens; MALME-3M; single dose 10 µM; negative = lethal; read-out: Percent growth inhibition
Experimental: as §1

MDA-MB-435 = assay: NCI cytotoxicity screen, Melanoma panel; format: cell-based; conditions: Homo sapiens, MDA-MB-435, read-out: Percent growth inhibition
Experimental: as §1

SK-MEL-28 = assay: NCI cytotoxicity screen, Melanoma panel; format: cell-based; conditions: Homo sapiens, single dose 10 µM, negative = lethal, read-out: Percent growth inhibition
Experimental: as §1

SK-MEL-2 = assay: NCI cytotoxicity screen, Melanoma panel; format: cell-based; conditions: Homo sapiens, single dose 10 µM, negative = lethal, read-out: Percent growth inhibition
Experimental: as §1

SK-MEL-5 = assay: NCI cytotoxicity screen, Melanoma panel; format: cell-based; conditions: Homo sapiens, single dose 10 µM, negative = lethal, read-out: Percent growth inhibition
Experimental: as §1

UACC-257 = assay: NCI cytotoxicity screen, Melanoma panel; format: cell-based; conditions: Homo sapiens, single dose 10 µM, negative = lethal, read-out: Percent growth inhibition
Experimental: as §1

IGROV1 = assay: NCI cytotoxicity screen, Ovarian Cancer panel; format: cell-based; conditions: Homo sapiens, IGROV-1, single dose 10 µM, negative = lethal, read-out: Percent growth inhibition
Experimental: as §1

NCI/ADR-RES = assay: NCI cytotoxicity screen, Ovarian Cancer panel; format: cell-based; conditions: Homo sapiens, single dose 10 µM, negative = lethal, read-out: Percent growth inhibition
Experimental: as §1

OVCAR-4 = assay: NCI cytotoxicity screen, Ovarian Cancer panel; format: cell-based; conditions: Homo sapiens; OVCAR-4; single dose 10 µM; negative = lethal; read-out: Percent growth inhibition
Experimental: as §1

OVCAR-5 = assay: NCI cytotoxicity screen, Ovarian Cancer panel; format: cell-based; conditions: Homo sapiens, single dose 10 µM, negative = lethal, read-out: Percent growth inhibition
Experimental: as §1

OVCAR-8 = assay: NCI cytotoxicity screen, Ovarian Cancer panel; format: cell-based; conditions: Homo sapiens, single dose 10 µM, negative = lethal, read-out: Percent growth inhibition
Experimental: as §1

SK-OV-3 = assay: NCI cytotoxicity screen, Ovarian Cancer panel; format: cell-based; conditions: Homo sapiens, single dose 10 µM, negative = lethal, read-out: Percent growth inhibition
Experimental: as §1

OVCAR-3 = assay: NCI cytotoxicity screen, Ovarian Cancer panel; format: cell-based, human; conditions: Homo sapiens; OVCAR-3; single dose 10 µM; negative = lethal; read-out: Percent growth inhibition
Experimental: as §1

ACHN = assay: NCI cytotoxicity screen, Renal Cancer panel; format: cell-based; conditions: Homo sapiens, single dose 10 µM, negative = lethal, read-out: Percent growth inhibition
Experimental: as §1

CAKI-1 = assay: NCI cytotoxicity screen, Renal Cancer panel; format: cell-based; conditions: Homo sapiens; CAKI-1; single dose 10 µM; negative = lethal; read-out: Percent growth inhibition
Experimental: as §1

RXF 393 = assay: NCI cytotoxicity screen, Renal Cancer panel; format: cell-based; conditions: Homo sapiens, single dose 10 µM, negative = lethal, read-out: Percent growth inhibition
Experimental: as §1

SN12C = assay: NCI cytotoxicity screen, Renal Cancer panel; format: cell-based; conditions: Homo sapiens, single dose 10 µM, negative = lethal, read-out: Percent growth inhibition
Experimental: as §1

UO-31 = assay: NCI cytotoxicity screen, Renal Cancer panel; format: cell-based; conditions: Homo sapiens, single dose 10 µM, negative = lethal, read-out: Percent growth inhibition
Experimental: as §1

DU-145 = assay: NCI cytotoxicity screen, Prostate Cancer panel; format: cell-based, human; conditions: Homo sapiens, single dose 10 µM, negative = lethal, read-out: Percent growth inhibition
Experimental: as §1

PC-3 = assay: NCI cytotoxicity screen, Prostate Cancer panel; format: cell-based, human; conditions: Homo sapiens, single dose 10 µM, negative = lethal, read-out: Percent growth inhibition
Experimental: as §1

BT-549 = assay: NCI cytotoxicity screen, Breast Cancer panel; format: cell-based; conditions: Homo sapiens, single dose 10 µM, negative = lethal, read-out: Percent growth inhibition
Experimental: as §1

HS 578 T = assay: NCI cytotoxicity screen, Breast Cancer panel; format: cell-based; conditions: Homo sapiens; HS 578T; single dose 10 µM; negative = lethal; read-out: Percent growth inhibition
Experimental: as §1

MCF7 = assay: NCI cytotoxicity screen, Breast Cancer panel; format: cell-based; conditions: Homo sapiens, single dose 10 µM, negative = lethal, read-out: Percent growth inhibition
Experimental: as §1

MDA-MB-231/ATCC = assay: NCI cytotoxicity screen, Breast Cancer panel; format: cell-based; conditions: Homo sapiens, MDA-MB-231, read-out: Percent growth inhibition
Experimental: as §1

MDA-MB-468 = assay: NCI cytotoxicity screen, Breast Cancer panel; format: cell-based; conditions: Homo sapiens, single dose 10 µM, negative = lethal, read-out: Percent growth inhibition
Experimental: as §1

T-47D = assay: NCI cytotoxicity screen, Breast Cancer panel; format: cell-based; conditions: Homo sapiens, T47D, T-47D; single dose 10 µM; negative = lethal; read-out: Percent growth inhibition
Experimental: as §1

[1] = Experimental log P, shake-flask method; format: physicochemical; conditions: n-octanol/phosphate buffer pH 7.4, read-out: Exp. Log P
Experimental: Partition coefficients or experimental log P values of all synthesized compounds (9–23, 30 and 31) were calculated using the shake-flask method. Log P values were determined using n-octanol and phosphate buffer (pH = 7.4) at 10:1 ratio of volumes. Stock solutions (10^−3 M) of compounds were prepared in DMSO. Glass vials were used to make final solutions i.e. stock solution (250 µL) and phosphate buffer (125 µL). To record the absorbance, wavelength was selected based on λmax of the respective compound. Initial absorbance (Ai) for every compound was noted consuming the stock solution in the buffer phase. Now added n-octanol to every vial and shaken well using a mechanical shaker for 50 minutes. To get separation of both phases, glass vials were centrifuged for 35 min. at 2500 rpm. Then, the layer of octanol was separated from glass vial. The final absorbance (Af) of each compound was recorded by using the buffer layer. The values of P for compounds were determined by the following equation (Eq. 8):8 P=Ai−Af/Af×Vw/Vo

Fc1ccc(-c2cn3ccnc3c(-c3ccc4c(c3)ncn4C3CCCCC3)n2)cc1 [Compound 13, 8-(1-cyclohexyl-1H-benzo[d]imidazol-5-yl)-6-(4-fluorophenyl)imidazo[1,2-a]pyrazine]
inhibition at 10 µM (A549/ATCC): 8.95% | inhibition at 10 µM (EXVX): < 1% | inhibition at 10 µM (HOP-62): 13.2% | inhibition at 10 µM (HOP-92): 7.05% | inhibition at 10 µM (NCI-H460): < 1% | inhibition at 10 µM (NCI-522): 22.6% | inhibition at 10 µM (NCI-H226): 7.09% | inhibition at 10 µM (NCI-H23): 4.49% | inhibition at 10 µM (NCI-H322M): < 1% | inhibition at 10 µM (COLO 205): < 1% | inhibition at 10 µM (HCT-116): 6.58% | inhibition at 10 µM (HCT-15): 4.85% | inhibition at 10 µM (HT29): 8.33% | inhibition at 10 µM (LOX IMVI): 0.76% | inhibition at 10 µM (M14): 0.73% | inhibition at 10 µM (UACC-62): 2.44% | inhibition at 10 µM (MALME-3M): < 1% | inhibition at 10 µM (MDA-MB-435): < 1% | inhibition at 10 µM (SK-MEL-28): < 1% | inhibition at 10 µM (SK-MEL-2): 6.3% | inhibition at 10 µM (SK-MEL-5): 2.9% | inhibition at 10 µM (UACC-257): < 1% | inhibition at 10 µM (IGROV1): 6.4% | inhibition at 10 µM (NCI/ADR-RES): 2.36% | inhibition at 10 µM (OVCAR-4): < 1% | inhibition at 10 µM (OVCAR-5): < 1% | inhibition at 10 µM (OVCAR-8): 3.09% | inhibition at 10 µM (SK-OV-3): < 1% | inhibition at 10 µM (OVCAR-3): < 1% | inhibition at 10 µM (ACHN): < 1% | inhibition at 10 µM (CAKI-1): < 1% | inhibition at 10 µM (RXF 393): 36% | inhibition at 10 µM (SN12C): < 1% | inhibition at 10 µM (UO-31): 22.8% | inhibition at 10 µM (DU-145): < 1% | inhibition at 10 µM (PC-3): 10.2% | inhibition at 10 µM (BT-549): < 1% | inhibition at 10 µM (HS 578 T): < 1% | inhibition at 10 µM (MCF7): 9.59% | inhibition at 10 µM (MDA-MB-231/ATCC): < 1% | inhibition at 10 µM (MDA-MB-468): < 1% | inhibition at 10 µM (T-47D): 10.1% | logP [1]: 1.26

c1csc(-c2cn3ccnc3c(-c3ccc4c(c3)ncn4C3CCCCC3)n2)c1 [Compound 22, 8-(1-cyclohexyl-1H-benzo[d]imidazol-5-yl)-6-(thiophen-2-yl)imidazo[1,2-a]pyrazine]
inhibition at 10 µM (A549/ATCC): 1.63% | inhibition at 10 µM (EXVX): 3.54% | inhibition at 10 µM (HOP-62): 0.44% | inhibition at 10 µM (HOP-92): < 1% | inhibition at 10 µM (NCI-H460): < 1% | inhibition at 10 µM (NCI-522): 14.6% | inhibition at 10 µM (NCI-H226): < 1% | inhibition at 10 µM (NCI-H23): 5.56% | inhibition at 10 µM (NCI-H322M): 0.45% | inhibition at 10 µM (COLO 205): < 1% | inhibition at 10 µM (HCT-116): < 1% | inhibition at 10 µM (HCT-15): 6.48% | inhibition at 10 µM (HT29): < 1% | inhibition at 10 µM (LOX IMVI): 1.01% | inhibition at 10 µM (M14): < 1% | inhibition at 10 µM (UACC-62): 0.23% | inhibition at 10 µM (MALME-3M): < 1% | inhibition at 10 µM (MDA-MB-435): < 1% | inhibition at 10 µM (SK-MEL-28): < 1% | inhibition at 10 µM (SK-MEL-2): 13.1% | inhibition at 10 µM (SK-MEL-5): 1.16% | inhibition at 10 µM (UACC-257): < 1% | inhibition at 10 µM (IGROV1): < 1% | inhibition at 10 µM (NCI/ADR-RES): 6.79% | inhibition at 10 µM (OVCAR-4): < 1% | inhibition at 10 µM (OVCAR-5): < 1% | inhibition at 10 µM (OVCAR-8): < 1% | inhibition at 10 µM (SK-OV-3): < 1% | inhibition at 10 µM (OVCAR-3): 0.91% | inhibition at 10 µM (ACHN): < 1% | inhibition at 10 µM (CAKI-1): < 1% | inhibition at 10 µM (RXF 393): < 1% | inhibition at 10 µM (SN12C): < 1% | inhibition at 10 µM (UO-31): 16.4% | inhibition at 10 µM (DU-145): 3.63% | inhibition at 10 µM (PC-3): 7.16% | inhibition at 10 µM (BT-549): < 1% | inhibition at 10 µM (HS 578 T): < 1% | inhibition at 10 µM (MCF7): 34% | inhibition at 10 µM (MDA-MB-231/ATCC): 7.47% | inhibition at 10 µM (MDA-MB-468): 28.3% | inhibition at 10 µM (T-47D): 37.3% | logP [1]: 1.37
